Activity calls are given as the source filed them.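 The calls were made as follows: active = cytotoxic to HEK293 cells with IC50 at or below 10 µM; inactive = IC50 above 10 µM.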
Test system: HEK293 viability, CellTiter-Glo ATP luminescence
Assay: HEK293 cell cytotoxicity, late-stage follow-up, cytotoxicity control for SRC3 inhibitor project, luminescence, dose response (AID 651779)

`CC(C)N(c1ccccc1)c1ccc(NC(=O)CCl)cc1` showed an IC50 of 0.441 µM.

For `CCc1ccc(N=c2c([N+](=O)[O-])nn(-c3ccc4c(c3)OCCO4)n2O)cc1`, the IC50 was > 35.9 µM (inactive).

`CC(=O)/C(N=Nc1ccc2c(c1)OCCO2)=C(/C)O` was tested, and the IC50 was > 35.9 µM (inactive).

`CCc1ccc(/C=C2\SC(=S)N(CCCC(=O)NCCCN3CCOCC3)C2=O)cc1` was tested, and the IC50 was 17.9 µM (inactive).

`O=[N+]([O-])c1nn(-c2ccc3c(c2)OCCO3)n(O)c1=Nc1ccccc1` was tested, and the IC50 was > 35.9 µM (inactive).

For `Cc1ccc(/C=C2\SC(=S)N(CCCC(=O)NC3CCCC3)C2=O)cc1`, the IC50 was > 35.9 µM (inactive).

With `Cc1cccc(NC(=O)c2cc(Cl)ccc2[N+](=O)[O-])c1` the IC50 was > 35.9 µM (inactive).

With `O=[N+]([O-])c1nn(-c2ccc3c(c2)OCCO3)n(O)c1=Nc1ccc(Cl)cc1` the IC50 was > 35.9 µM (inactive).

In the case of `NS(=O)(=O)c1ccc(Nc2nc(-c3cccnc3)cs2)cc1`, the IC50 is reported as > 35.9 µM (inactive).

For `O=[N+]([O-])c1cccc2c1ccc1ncccc12`, the IC50 was > 35.9 µM (inactive).

`Cc1ccc(OCC(=O)c2cc(C)n(-c3ccccc3)c2C)c([N+](=O)[O-])n1` was tested, and the IC50 was > 35.9 µM (inactive).

In the case of `Cc1ccc(/C=C2/SC(=S)N(CCCC(=O)Nc3ccc(O)cc3)C2=O)cc1`, the IC50 is reported as > 35.9 µM (inactive).

`Cc1nn(CC(=O)N2CCN(c3cccc(C(F)(F)F)c3)CC2)c(=O)c2cccn12` was tested, and the IC50 was > 35.9 µM (inactive).

With `Cc1c(/C(O)=C2/C(=O)C(=O)N(Cc3cccnc3)C2c2ccccn2)cnn1-c1ccccc1` (stereo unspecified) the IC50 was > 35.9 µM (inactive).

`O=C(CCl)NC(Cc1ccccc1)c1ccccc1` (stereo unspecified) was tested, and the IC50 was 22.3 µM (inactive).

With `Cc1ccc(OCC(=O)c2cc(C)n(Cc3cccs3)c2C)c([N+](=O)[O-])n1` the IC50 was > 35.9 µM (inactive).

In the case of `O=C(Nc1cccnc1)c1ccc(C(=O)Nc2cccnc2)cc1`, the IC50 is reported as > 35.9 µM (inactive).

In the case of `Cc1c(Cl)cccc1N=c1c([N+](=O)[O-])nn(-c2ccc3c(c2)OCCO3)n1O`, the IC50 is reported as > 35.9 µM (inactive).

`Cc1ccc(N=c2c([N+](=O)[O-])nn(-c3ccc4c(c3)OCCO4)n2O)cc1F` was tested, and the IC50 was > 35.9 µM (inactive).

`O=C(NC(NC(=S)N1CCOCC1)C(Cl)(Cl)Cl)c1ccc(Cl)cc1` (stereo unspecified) was tested, and the IC50 was > 35.9 µM (inactive).

With `COC(=O)c1c(C)n(-c2ccc(OC)cc2)c2ccc(O)cc12` the IC50 was > 35.9 µM (inactive).

With `Cc1cc(N=c2c([N+](=O)[O-])nn(-c3ccc4c(c3)OCCO4)n2O)ccc1Br` the IC50 was > 35.9 µM (inactive).

For `COc1cc2c(cc1OC)C(NC(=O)C(F)(F)F)CNC2=O` (stereo unspecified), the IC50 was 9.84 µM.

`COc1cc(C2c3cc4c(cc3C(OC3OC5COC(c6cccs6)OC5C(O)C3O)C3COC(=O)C23)OCO4)cc(OC)c1O` (stereo unspecified) was tested, and the IC50 was 24 µM (inactive).

In the case of `O=C1CCC2S/C(=C/Nc3ccc(C(F)(F)F)cc3)C(=O)N12` (stereo unspecified), the IC50 is reported as > 35.9 µM (inactive).

`CCC(=O)N1CCN(c2ccnc3cc(Cl)ccc23)CC1` was tested, and the IC50 was > 35.9 µM (inactive).

For `NC(=S)NN=C1CCSc2ccc(Cl)cc21`, the IC50 was 31.4 µM (inactive).

`O=C(O)CN1C(=O)/C(=C\c2ccccc2OCc2ccc(Cl)cc2Cl)SC1=S` was tested, and the IC50 was > 35.9 µM (inactive).

For `Cc1ccc(N=c2c([N+](=O)[O-])nn(-c3ccc4c(c3)OCCO4)n2O)c(Cl)c1`, the IC50 was > 35.9 µM (inactive).

In the case of `Cc1c(CC(=O)NCCCC(=O)O)c(=O)oc2cc3c(cc12)CCC(C)(C)O3`, the IC50 is reported as > 35.9 µM (inactive).

In the case of `O=C(Nc1nc2ccccc2s1)C1c2ccccc2Oc2ccccc21`, the IC50 is reported as > 35.9 µM (inactive).

For `CCCCC(=O)Nc1cccn2ncnc12`, the IC50 was > 35.9 µM (inactive).

With `CC(C)n1c(SCC(=O)Nc2nc3c(s2)CCCC3)nc2c1c(=O)n(C)c(=O)n2C` the IC50 was 33.6 µM (inactive).

`S=C(c1ccc(-c2ccccc2)cc1)N1CCOCC1` was tested, and the IC50 was > 35.9 µM (inactive).

`CCOc1ccc(/C=C2\SC(=S)N(CCCC(=O)NCCCN3CCOCC3)C2=O)cc1` was tested, and the IC50 was > 35.9 µM (inactive).

For `O=C(COC(=O)c1ccc[nH]c1=O)Nc1ccc(N2CCCCC2)cc1`, the IC50 was > 35.9 µM (inactive).

For `CCOC(=O)C(=CNc1ccc(NC2=NCC(C)S2)cc1)C(=O)OCC` (stereo unspecified), the IC50 was > 35.9 µM (inactive).

`O=C(Nc1nc(-c2ccccn2)cs1)c1cccc(S(=O)(=O)N2CCOCC2)c1` was tested, and the IC50 was > 35.9 µM (inactive).

With `Cc1cc(/C=C2\Cc3ccccc3C2=O)c(C)n1-c1ccccc1` the IC50 was > 35.9 µM (inactive).

In the case of `O=C(CCl)N1N=C(c2ccco2)CC1c1ccco1` (stereo unspecified), the IC50 is reported as 5.77 µM.

With `CN(C)c1ccc(CNC(=O)CCNS(=O)(=O)c2cc(Br)cnc2N)cc1` the IC50 was > 35.9 µM (inactive).

For `O=C(CCl)N1N=C(c2ccco2)CC1c1cccs1` (stereo unspecified), the IC50 was 2.9 µM.

In the case of `Cc1cc(C)cc(N=c2c([N+](=O)[O-])nn(-c3ccc4c(c3)OCCO4)n2O)c1`, the IC50 is reported as > 35.9 µM (inactive).

With `O=C(CCCc1nc(-c2ccccc2Cl)no1)NC1CCCC1` the IC50 was > 35.9 µM (inactive).

In the case of `S=C(Nc1ccccc1)Nc1ccc(OCc2ccc(Cl)cc2Cl)cc1`, the IC50 is reported as > 35.9 µM (inactive).

For `c1ccc(-c2nnc(-c3ccccn3)nc2NC2CCCCC2)cc1`, the IC50 was > 35.9 µM (inactive).

In the case of `CC(=O)N1CCN(c2ncnc3ccccc23)CC1`, the IC50 is reported as > 35.9 µM (inactive).

With `Cn1nc(C(F)(F)F)c(C#N)c1N1CCN(c2ccc(F)cc2)CC1` the IC50 was 28.3 µM (inactive).

For `COc1cc(N=c2c([N+](=O)[O-])nn(-c3ccc4c(c3)OCCO4)n2O)cc(OC)c1`, the IC50 was 25.6 µM (inactive).

In the case of `COc1ccc(/C=C2/SC(=S)N(CCC(=O)O)C2=O)cc1`, the IC50 is reported as > 35.9 µM (inactive).

With `NC(=O)c1sc2nc3c(c(-c4ccco4)c2c1N)CCC3` the IC50 was > 35.9 µM (inactive).

— PubChem BioAssay AID651779 (The Scripps Research Institute Molecular Screening Center, 2012)
